Publication PMC9572513, “Novel Unsymmetric 3,5-Bis(benzylidene)-4-piperidones That Display Tumor-Selective Toxicity” (Molecules, 2022)
Counter-ions that a name gives are not always drawn. Like-named read-outs stand apart in the source and are kept apart here.

Assays:
[1] = MTT cytotoxicity against human pulp cell (HPC); format: cell-based; conditions: human, human pulp cells (HPC), non-malignant oral cells
Protocol: (§1) The method for evaluating 2a–f and 3a–e against human oral squamous cell carcinoma (OSCC) cell lines (Ca9-22, HSC-2, HSC-3, HSC-4) and human non-malignant oral cells [human gingival fibroblast (HGF), human periodontal ligament fibroblast (HPLF), and human pulp cell (HPC)] have been reported previously, except the length of time of this bioassay was extended from 24 h to 48 h. In brief, different quantities of the compounds were incubated with the cells in Dulbecco’s modified eagle medium (DMEM), which was supplemented with 10% FBS and antibiotics. The cell viability was determined by the 3-(4,5-dimethylthiazol-2-yl)-2,5-diphenyl-2H-tetrazolium bromide (MTT) method as summarized previously (Figure 4).

[2] = tested on: HT29 colon cancer cells; experiment: Cytotoxicity against HT29 colon cancer cells; format: cell-based, human; conditions: for IC50: 48 h; for HT29 SI (selectivity index): IC50 CRL1790 / IC50 HT29
Protocol: (§2) The culture medium was supplemented with 10% heat-inactivated fetal bovine serum (FBS) and 1% penicillin–streptomycin antibiotics. The time of the bioassays was 48 h. The determinations were undertaken in triplicate on three different occasions.

[3] = tested on: Ca9-22, HSC-2, HSC-3, and HSC-4 squamous cell carcinoma cell lines; experiment: Average over Ca9-22, HSC-2, HSC-3 and HSC-4 OSCC cell lines; format: cell-based, human; conditions: for CC50: read-out: Average CC50; for Average SI: average of SI for four OSCC cell lines
Protocol: as §1

[4] = MTT cytotoxicity against human periodontal ligament fibroblast (HPLF); format: cell-based; conditions: human, human periodontal ligament fibroblasts (HPLF), non-malignant oral cells
Protocol: as §1

[5] = MTT cytotoxicity against human gingival fibroblast (HGF); format: cell-based; conditions: human, human gingival fibroblasts (HGF), non-malignant oral cells
Protocol: as §1

[6] = Average over HGF, HPLF and HPC non-malignant oral cells; format: cell-based, human; conditions: human, HPLF and HPC non-malignant oral cells (average), average of HGF
Protocol: as §1

[7] = tested on: HSC-4 squamous cell carcinoma cells; experiment: MTT cytotoxicity against HSC-4 squamous cell carcinoma; format: cell-based, human; conditions: for CC50: Homo sapiens, read-out: HSC-4 CC50; for HSC-4 SI: average CC50 HGF/HPLF/HPC divided by CC50 HSC-4
Protocol: as §1

[8] = tested on: HSC-2 squamous cell carcinoma cells; experiment: MTT cytotoxicity against HSC-2 squamous cell carcinoma; format: cell-based, human; conditions: for CC50: Homo sapiens, read-out: HSC-2 CC50; for HSC-2 SI: average CC50 HGF/HPLF/HPC divided by CC50 HSC-2
Protocol: as §1

[9] = tested on: CRL1790 non-malignant colon cells; experiment: Cytotoxicity against CRL1790 non-malignant colon cells; format: cell-based; conditions: Homo sapiens, 48 h
Protocol: as §2

[10] = tested on: HSC-3 squamous cell carcinoma cells; experiment: MTT cytotoxicity against HSC-3 squamous cell carcinoma; format: cell-based, human; conditions: for CC50: Homo sapiens, read-out: HSC-3 CC50; for HSC-3 SI: average CC50 HGF/HPLF/HPC divided by CC50 HSC-3
Protocol: as §1

[11] = tested on: Ca9-22 squamous cell carcinoma cells; experiment: MTT cytotoxicity against Ca9-22 squamous cell carcinoma; format: cell-based, human; conditions: for CC50: Homo sapiens, read-out: Ca9-22 CC50; for Ca9-22 SI: average CC50 HGF/HPLF/HPC divided by CC50 Ca9-22
Protocol: as §1

[12] = tested on: HCT116 and HT29 colon cancer cells; experiment: Average over HCT116 and HT29 colon cancer cells; format: cell-based, human; conditions: for IC50: Homo sapiens, average of HCT116 and HT29, unit printed only for the single cell-line columns; for Average SI: average of SI for HCT116 and HT29; for PSE (potency-selectivity expression): reciprocal of average IC50 x average SI x 100, colon cells
Protocol: as §2

[13] = tested on: HCT116 colon cancer cells; experiment: Cytotoxicity against HCT116 colon cancer cells; format: cell-based, human; conditions: for IC50: Homo sapiens, HCT-116, 48 h, 48 h; for HCT116 SI (selectivity index): IC50 CRL1790 / IC50 HCT116
Protocol: as §2

[14] = Homo sapiens, average of four OSCC cell lines

Row | Structure (SMILES) | CC50 at 48 h [1] [µM] | IC50 ([2]; Homo sapiens, HT-29, 48 h) [µM] | HT29 SI (selectivity index) [2] | CC50 [3, 14] [µM] | Average SI [3] | CC50 at 48 h [4] [µM] | CC50 at 48 h [5] [µM] | CC50 at 48 h [6] [µM] | CC50 ([7]; HSC-4, 48 h, MTT) [µM] | CC50 ([8]; HSC-2, 48 h, MTT) [µM] | HSC-2 SI [8] | IC50 [9] [µM] | CC50 ([10]; HSC-3, 48 h, MTT) [µM] | HSC-3 SI [10] | CC50 ([11]; Ca9-22, 48 h, MTT) [µM] | Ca9-22 SI [11] | IC50 [12] [µM] | Average SI [12] | PSE (potency-selectivity expression) [12] | HSC-4 SI [7] | also measured
1 | COc1ccc(/C=C2\CNC/C(=C\c3ccc(O)c(CN4CCCCC4)c3)C2=O)cc1OC [Compound 2d, 3-[3-(1-Piperidinylmethyl)-4-hydroxybenzylidene]-5-(3,4-dimethoxybenzylidene)-4-piperidone dihydrochloride] | < 1.6 | < 1 | 43.5 | < 1 | 7.47 | 2.7 | 7 | < 3.77 | 0.75 | 0.61 | <6.18 | 23.5 ± 0.26 | 0.39 | <9.67 | 0.42 | <8.98 | 0.5 | 47.9 | 9580 | – | IC50 [2]: 0.54 ± 0.17 µM; CC50 ([3]; average of four OSCC cell lines): 0.54 µM; PSE (potency-selectivity expression) ([3]; reciprocal of average CC50 (OSCC) x average SI x 100): > 1000
2 | COc1ccc(/C=C2\CNC/C(=C\c3ccc(O)c(CN4CCOCC4)c3)C2=O)cc1OC [Compound 2e, 3-[3-(4-Morpholinomethyl)-4-hydroxybenzylidene]-5-(3,4-dimethoxybenzylidene)-4-piperidone dihydrochloride] | > 200 | 3.75 ± 0.78 | 7.31 | 69.3 | 3.12 | > 200 | > 200 | > 200 | – | 88.5 | >2.26 | 27.4 ± 0.42 | 73.2 | >2.73 | 41.8 | >4.79 | 3.56 | 7.72 | 217 | – | IC50 [13]: 3.37 ± 0.68 µM; HCT116 SI (selectivity index) [13]: 8.13
3 | COc1ccc(/C=C2\CNC/C(=C\c3ccc(O)c(CN4CCN(C)CC4)c3)C2=O)cc1 [Compound 3c] | 2.8 | 0.76 ± 0.26 | 17.4 | 1 | 5.81 | 4.9 | 8.8 | 5.5 | 1.18 | 1.1 | 5.00 | 13.2 ± 0.36 | 1.05 | 5.24 | 0.66 | 8.33 | 0.9 | 15.1 | 1678 | 4.66 | IC50 [13]: 1.04 ± 0.48 µM; HCT116 SI (selectivity index) [13]: 12.7
4 | Cc1ccc(/C=C2\CNC/C(=C\c3ccc(O)c(CN4CCN(C)CC4)c3)C2=O)cc1 [Compound 3d] | 6 | 0.71 ± 0.29 | 31.8 | 1.93 | 5.57 | 10.1 | 14.6 | 10.2 | 2.29 | 2.2 | 4.64 | 22.6 ± 0.59 | 1.91 | 5.34 | 1.3 | 7.85 | 2.31 | 18.8 | 814 | 4.45 | IC50 [13]: 3.91 ± 1.69 µM; HCT116 SI (selectivity index) [13]: 5.78
5 | O=c1[nH]cc(F)c(=O)[nH]1 [Compound 5-FU, 5-fluorouracil, reference compound] | > 1000 | 14.4 ± 0.65 | 1.22 | > 240 | >35.0 | > 1000 | > 1000 | > 1000 | 7.8 | 359 | >2.79 | 17.6 ± 0.82 | 450 | >2.22 | 141 | >7.09 | 8.97 | 3.10 | 34.6 | >128 | IC50 [13]: 3.54 ± 0.72 µM; HCT116 SI (selectivity index) [13]: 4.97
6 | COc1cccc2c1C(=O)c1c(O)c3c(c(O)c1C2=O)C[C@@](O)(C(=O)CO)C[C@@H]3O[C@H]1C[C@H](N)[C@H](O)[C@H](C)O1 [DXR, doxorubicin, reference compound] | > 10 | – | – | 0.23 | >48.4 | > 10 | > 10 | > 10 | 0.14 | 0.2 | >50.0 | – | 0.24 | >41.7 | 0.33 | >30.3 | – | – | – | >71.4 | –
7 | N[C@@H](Cc1ccc(N(CCCl)CCCl)cc1)C(=O)O [MPN, melphalan, reference compound] | > 200 | – | – | – | >11.3 | > 200 | > 200 | > 200 | – | – | >11.8 | – | – | >9.62 | – | >4.68 | – | – | – | >19.2 | CC50 ([3]; Homo sapiens): 22.7 µM; CC50 ([7]; HSC-4, 48 h): 10.4 µM; CC50 ([8]; HSC-2, 48 h): 17 µM; CC50 ([10]; HSC-3, 48 h): 20.8 µM; CC50 ([11]; Ca9-22, 48 h): 42.7 µM
